Test results taken from patent publication US7968093B2, “Fully human antibodies directed against the human insulin-like growth factor-1 receptor” (ImClone LLC, priority 2003, dated 2011).

Tests used:
[1] = test system: BxPC-3 human pancreatic carcinoma cells; test: BxPC-3 xenograft, A12 with CPT-11 or gemcitabine; type: in vivo, athymic nu/nu mice
Description: Athymic nu/nu mice were injected subcutaneously with 2×10^6 BxPC-3 human pancreatic carcinoma cells mixed 1:1 with Matrigel. […] All treatments were administered by intraperitoneal injection. Tumor measurements were recorded twice weekly using the formula Volume=(π/6)l×w^2.
At day 18 three animals per group were sacrificed and the tumors resected for midpoint histological evaluation. Treatment and tumor measurements continued on the remaining animals until day 44 with the exception of the TBS group. […] At termination of the study final tumor measurements were recorded, animals sacrificed, and four per group had tumors resected for endpoint histological evaluation.

[2] = test system: HT-29 human colon carcinoma; test: HT-29 xenograft, A12 with CPT-11 or paclitaxel; type: in vivo, nu/nu mice
Description: […] nu/nu mice were injected subcutaneously with HT-29 human colon carcinoma cell suspension, at 5×10^6 cells in 0.4 ml mixed 1:1 with Matrigel. […] All treatments were administered by intraperitoneal injection.
Treatment continued for six weeks and tumor measurements were recorded twice weekly using the formula Volume=(π/6)l×w^2. At day 21 four animals per group were sacrificed and the tumors resected for histological evaluation. Treatment and tumor measurements continued on the remaining animals until day 40. At that time final tumor measurements were recorded, animals sacrificed, and four per group had tumor resected for endpoint histological evaluation.

[3] = molecular target: T1, IGF-IR on MCF7 cells (Homo sapiens, UniProt P08069); test: IGF-IR surface receptor density by FACS; type: cell-based; conditions: MCF7 cells incubated at 4° C.
T1 construct: endogenous in cells
Description: IGF-IR surface receptor density was determined by FACS. […] Cells were washed in ice-cold PBS/5% BSA twice, and 1×10^6 cells were aliquoted to staining tubes and placed on ice. An IGF-IR alpha-polypeptide specific, non-blocking mouse monoclonal antibody (Ab-1, NeoMarkers, Fremont, Calif.), was then incubated with cells at 4° C. for 2 h. After PBS/BSA washes, cells were incubated with anti-mouse IgG phycoerythrin-conjugated secondary antibody (PharMingen, BD Biosciences) for 1 h on ice. After PBS/BSA wash, cells were analyzed by fluorescence-activated cell-sorting assay using a FACSvantage SE flow cytometer (BD Bioscience).

[4] = test system: Akt; test: IGF-I mediated Akt phosphorylation, western blot; type: cell-based, human; conditions: MCF7 cells; IGF-I stimulated; A12 even at 10 nM
Description: (§1) To visualize the inhibitory effect of the anti-IGF-IR antibodies on IGF-I signaling, receptor auto-phosphorylation and downstream effector molecule phosphorylation analysis was performed in the presence or absence of antibody A12 or 2F8. The MCF7 human breast cancer cell line was selected for use due to its high IGF-IR density. Cells were plated into 10 cm or 6 well culture dishes and grown to 70-80% confluence. The monolayers were then washed twice in PBS and cultured overnight in serum free defined medium. Anti-IGF-IR antibody was then added in fresh serum-free media (100 nM-10 nM) and incubated cells 30 minutes before addition of ligand (10 nM). Cells were incubated with ligand for 10 minutes, then placed on ice and washed with ice-cold PBS. […] Tyrosine phosphorylated protein was detected on the blot using an anti-p-tyrosine antibody (Cell Signaling #9411) and an anti-mouse-HRP secondary antibody. IGF-IR was detected with monoclonal antibody C-20 (Santa Cruz). For Akt phosphorylation, phospho-Akt was detected with antibody #559029 and total Akt with #559028 (BD Pharmingen). For MAPK phosphorylation, phospho-p44/42 was detected with #9101 and total p44/42 with #9102 (Cell Signaling Tech.). […]

[5] = molecular target: T2, IGF-IR (Homo sapiens, UniProt P08069); test: Human IGF-IR binding ELISA; design: recombinant extracellular portion of human IGF-IR was used to screen; conditions: full IgG; 50% binding relative to saturation; read-out: Binding (ED50)
Description: (§2) Binding results were determined by human IGF-IR ELISA and represent the concentration of titered antibody necessary to achieve 50% binding relative to saturation. Blocking results represent the level of antibody necessary to inhibit 50% binding of ^125I-IGF-I ligand to immobilized human IGF-IR. Affinity was determined by BIAcore analysis according to manufacturer's specifications (Pharmacia BIACORE 3000). Soluble IGF-IR was immobilized on the sensor chips and antibody binding kinetics determined.

[6] = molecular target: T2, IGF-IR; test: BIAcore binding kinetics on immobilized soluble IGF-IR; design: recombinant extracellular portion of human IGF-IR was used to screen; conditions: full IgG, BIACORE 3000
Description: Binding kinetic analysis was performed on 2F8 IgG using a BIAcore unit.
as §2

[7] = test system: MAPK; test: IGF-I mediated MAPK phosphorylation, western blot; type: cell-based, human; conditions: MCF7 cells; IGF-I stimulated
Description: as §1

A12: fully human IgG1 anti-IGF-IR antibody, lambda light chain; VH SEQ ID NO:2, VL SEQ ID NO:10; affinity matured from 2F8
animals with partial tumor regressions ([1]; after five weeks of treatment): 2 of eight
Regressions (individual tumor volumes < day 1 of treatment) ([1]; day 19, animals regressing/animals in group): 2/12
T/C % ([1]; day 19, ip, A12 1 mg 3 times per week, irinotecan 1 mg or gemcitabine 2.5 mg every 7 days): 57%
Regressions (individual tumor volumes < day 1 of treatment) ([1]; day 23): 2/9
T/C % ([1]; day 23, same regimens): 49%
Regressions (individual tumor volumes < day 1 of treatment) ([1]; day 26): 2/9
T/C % ([1]; day 26, same regimens): 40%
Regressions (individual tumor volumes < day 1 of treatment) ([1]; day 30): 2/8
T/C % ([1]; day 30, same regimens): 40%
Regressions (individual tumor volumes < day 1 of treatment) ([1]; day 32): 2/8
T/C % ([1]; day 32, same regimens): 39%
Regressions (individual tumor volumes < day 1 of treatment) ([1]; day 37): 2/8
Regressions (individual tumor volumes < day 1 of treatment) ([1]; day 41): 2/8
Regressions (individual tumor volumes < day 1 of treatment) ([1]; day 44): 2/8
T/C % ([2]; day 12, ip, A12 1 mg 3 times per week, irinotecan 2 mg or paclitaxel 121 μg every 7 days): 69%
T/C % ([2]; day 15, same regimens): 62%
T/C % ([2]; day 19, same regimens): 64%
T/C % ([2]; day 22, same regimens): 58%
T/C % ([2]; day 26, same regimens): 62%
T/C % ([2]; day 29, same regimens): 61%
T/C % ([2]; day 33, same regimens): 58%
T/C % ([2]; day 36, same regimens): 53%
T/C % ([2]; day 40, same regimens): 54%
inhibition of growth of HT-29 xenografts compared to TBS control ([2]; single agent): significantly (P<0.02) inhibited
shift of surface IGF-IR fluorescence intensity [3]: shift was not seen
inhibition of Akt phosphorylation [4]: significantly inhibited Akt phosphorylation
EC50 [5]: 0.3 nM
Affinity Koff [6]: Koff = 3.0 × 10^−5
Affinity Kon [6]: Kon = 7.2 × 10^5
Kd ([6]; read-out: Affinity KD): 0.041 nM
inhibition of MAPK phosphorylation [7]: considerably inhibited
